Test results taken from US9643960B2, “Procaspase activating compounds” (The Board of Trustees of the University of Illinois, priority 2009, dated 2017).
Where two headings read alike, the source gives them in different places.

Columns and labels:
[1] = tested on: mice; details: cited from earlier work
[2] = tested on: U937 human lymphoma cells; test: Cell death assay in U937 cells (sulforhodamine B, 72 h); assay type: cell-based
Protocol: To each well was added 2 μL of 100× compound stock solutions in DMSO at varying concentrations so that the cells were treated with concentrations between 0 μM and 100 μM compound. Each concentration was tested in quintuplicate. In each plate 5 wells received 10 μM etoposide as a positive control and 5 wells received 2 μL of DMSO as a negative control. […] 1 Specifically, to each well of the plate was added 50 μL of an 80% (w/v) solution of TCA in H2O and the plates were allowed to rest at 4° C. overnight. The plates were then washed gently with a steam of H2O five times to remove the excess TCA and precipitated serum proteins. […] After staining, the wells were gently washed 5 times with 100 μL of 1% (v/v) acetic acid to remove the unbound dye. The plates were then allowed to air dry. […] The OD was then read at 510 nm in a Molecular Dynamics plate reader and the percent cell death calculated and normalized to the positive control (100% cell death) and the negative control (0% cell death). The percent cell death was averaged for each compound concentration and plotted as a function of compound concentration. The data were fit to a logistical dose response curve using Table curve 2D and the IC50 value was calculated. The experiment was repeated three times and the average of the calculated IC50 values was reported. The standard error of the mean (SEM) was determined and reported for the triplicate experiments.
U-937 cells grow in culture as a suspension.

[3] = Solubility in β-cyclodextran; assay type: physicochemical
[4] = target: T1, caspase-3 (Homo sapiens, UniProt P42574); test: Caspase-3 activity assay (relief of zinc mediated inhibition); assay type: biochemical; details: for activation at 10 µM: 10 μM compound, 2.5 μM zinc
T1 construct: Active caspase-3 is a homodimer of heterodimers and is produced by proteolysis of procaspase-3; 6xHis (C); made in house; host or cells: Escherichia coli BL21(DE3), plasmid pHC332
T1 sequence (P42574 29-175 limits assumed): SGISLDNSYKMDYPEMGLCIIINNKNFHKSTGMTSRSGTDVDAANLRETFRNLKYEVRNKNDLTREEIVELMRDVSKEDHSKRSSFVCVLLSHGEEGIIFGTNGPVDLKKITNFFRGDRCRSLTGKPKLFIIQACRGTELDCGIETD
T1 sequence (P42574 176-277 limits assumed): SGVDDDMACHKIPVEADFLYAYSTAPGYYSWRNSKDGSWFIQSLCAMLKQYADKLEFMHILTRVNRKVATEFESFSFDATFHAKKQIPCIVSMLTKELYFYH
Protocol: Caspase-3 Activity Assays—Zinc-free stocks (2×) of caspase-3 (1 μM) were prepared in Caspase Activity Buffer. Compound stock solutions were made (2×) at various concentrations from 200 μM to 200 nM in Caspase Activity Buffer. […] The plates were incubated at room temperature for 30 minutes. […] The data for each compound concentration (4 wells) was averaged and the percent activity was plotted as a function of compound concentration. The data was analyzed using Table Curve 2D and fitted to a logistical dose-response curve. […] The percent activity at 10 μM was determined for each compound and reported as an average of the three replicate experiments with the corresponding SEM.

[5] = EGTA fluorescence titration assay (zinc binding); details: read-out: Zinc Binding (KD) nM
[6] = Pharmacokinetics of S-PAC-1 in lymphoma bearing dogs; assay type: in vivo, dog; details: continuous infusion
Excerpt: In addition, blood was collected from all pet dogs at each scheduled follow up visit to characterize hematologic and non-hematologic toxicity. Between administrations, patients were monitored by pet owners for gastrointestinal toxicity observational scores adhering the Veterinary Co-operative oncology group common terminology and criteria for adverse events (VCOG_CTCAE) (44).

[7] = target: T2, procaspase-3(D9A/D28A/D175A) mutant (Homo sapiens, UniProt P42574, D175A/D28A/D9A); test: Procaspase-3 D3A mutant activity in the presence of zinc; assay type: biochemical; details: 10 μM zinc, S-PAC-1 added, monitored at 15 minute intervals
T2 construct: 6xHis (C); made in house; host or cells: Escherichia coli BL21(DE3) (printed for procaspase-3 in general, not for the mutant by name)
T2 sequence (P42574 1-277 D9A/D28A/D175A): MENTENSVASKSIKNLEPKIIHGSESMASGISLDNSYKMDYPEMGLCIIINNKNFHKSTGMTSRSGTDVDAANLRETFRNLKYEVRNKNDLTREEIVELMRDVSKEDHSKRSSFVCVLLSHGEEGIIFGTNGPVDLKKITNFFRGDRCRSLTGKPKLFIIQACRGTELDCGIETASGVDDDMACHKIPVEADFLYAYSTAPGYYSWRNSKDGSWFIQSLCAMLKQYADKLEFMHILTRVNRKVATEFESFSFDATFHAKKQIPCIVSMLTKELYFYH
Excerpt: Zinc ions are known to inhibit procaspase-3. […] The effect of a range of concentrations of zinc on caspase-3 and procaspase-3 enzymatic activity was examined. All buffers were first treated with Chelex® resin to remove any trace metal contaminants. […] To ensure that the activity of the proenzyme was being monitored, a proteolytically uncleavable mutant of procaspase-3 (in which the three aspartic acid cleavage site residues are mutated to alanine (D9A/D28A/D175A)) was used (24,32).

[8] = Continuous-rate infusion pharmacokinetics in healthy research dogs; assay type: in vivo; details: hound, dog, plasma, continuous intravenous infusion, read-out: steady state plasma concentration
Protocol: Each dog received an initial loading dose via i.v. infusion over the course of 10 minutes followed by a maintenance dosage delivered by an infusion pump for an additional 24 hours.

[9] = Pharmacokinetics of S-PAC-1 i.p. in mice; assay type: in vivo, mouse; details: C57/BL6 mice, 125 mg/kg i.p.
Excerpt: Mice were sacrificed and blood drawn at varying time points after administration. Blood samples were centrifuged and the serum was collected and analyzed by liquid chromatography to determine drug concentration.

[10] = tested on: SK-MEL-5 cells; test: Live cell confocal imaging, colocalization with caspase-3/-7 activity; assay type: cell-based, human; details: 25 μM with FAM-DEVD-fmk
Protocol: Live Cell Imaging—SK-Mel-5 cells were grown on the bottom of no. 1 borosilicate growth chambers (Nunc) to a confluency of […]. Cells were then treated with DMSO, 25 μM FAM-DEVD-fmk in DMSO, 25 μM AF350-PAC-1 in DMSO, or both 25 μM FAM-DEVD-fmk and 25 μM AF350-PAC-1 concurrently for 1 hour at 37° C. and 5% CO2. Cells were then washed 5 times with RPMI 1640 growth media lacking phenol red. The cells were then allowed to further incubate at 37° C. for 2 hours before imaging. For cells stained with SYBR green for nuclear staining, a 1:100,000 dilution of SYBR green in media was added immediately prior to imaging. Cells were imaged on a Leica SP2 Multiphoton Confocal microscope.

[11] = Homo sapiens, U-937, 72 h, 72 h exposure, sulforhodamine B assay, read-out: U937 (IC50 μM)
[12] = Homo sapiens, U-937, 72 h, read-out: U937 (IC50 μM), 72 h exposure, sulforhodamine B assay

| SMILES | IC50 [2, 11] | activation at 10 µM [4] | Kd [5] | further results |
| --- | --- | --- | --- | --- |
| c1ccc(CN(CCN(Cc2ccccn2)Cc2ccccn2)Cc2ccccn2)nc1 [TPEN, N,N,N′,N′-tetrakis (2-pyridylmethyl)ethylenediamine] |  |  |  | Neurotoxicity [1]: severe neurotoxicity in mice at low concentrations and rapid death at higher concentrations |
| C=CCc1cccc(/C=N/NC(=O)CN2CCN(Cc3cccc(C(=O)O)c3)CC2)c1O [PAC-1-II-8] | 2.3 µM |  |  | Solubility in β-Cyclodextran (mg β-CD/μmol Compound) [3]: 5.6 mg β-CD/μmol Compound |
| C=CCc1cccc(/C=N/NC(=O)CN2CCN(Cc3cccc(Cn4cc(CNC(=O)Cc5c(C)c6cc(S(=O)(=O)O)c(N)cc6oc5=O)nn4)c3)CC2)c1O [drawing 79] |  |  |  | IC50 ([2]; 72 h exposure, sulforhodamine B assay, read-out: U937 (IC50 μM)): 10.7 µM |
| COc1cccc(/C=N/NC(=O)CN2CCN(Cc3cc(OC)c(OC)c(OC)c3)CC2)c1O [PAC-1-III-2] | 27 ± 9.4 µM |  |  |  |
| COc1ccc(OC)c(CN2CCN(CC(=O)N/N=C/c3c(O)cc(OC)cc3OC)CC2)c1 [PAC-1-III-4] | 17.5 µM |  |  |  |
| COc1cc(O)c(/C=N/NC(=O)CN2CCN(Cc3ccccc3CS(=O)(=O)c3ccccc3)CC2)c(OC)c1 [PAC-1-III-6] | 5.5 ± 1.5 µM |  |  |  |
| C=CCc1cccc(/C=N/NC(=O)CN2CCN(Cc3ccc(F)cc3)CC2)c1O [PAC-1-II-4] | 2 ± 0.2 µM | 24.2 ± 1.7% | 96 nM |  |
| C=CCc1cccc(/C=N/NC(=O)CN2CCN(Cc3ccc(OC)cc3)CC2)c1O [PAC-1-II-6] | 2.7 ± 0.8 µM | 24 ± 3.4% | 41 nM | Solubility in β-Cyclodextran (mg β-CD/μmol Compound) [3]: 7.1 mg β-CD/μmol Compound |
| O=C(CN1CCN(Cc2ccccc2)CC1)NCc1ccccc1O [PAC-1-IV-7] | > 100 µM | 4.4 ± 0.9% |  |  |
| C=CCc1cc(/C=N/NC(=O)CN2CCN(Cc3ccccc3)CC2)c(O)c(CC=C)c1 [PAC-1-I-10] |  |  |  | IC50 [2, 12]: 1.8 ± 0.4 µM; IC50 ([2]; read-out: U937 (IC50 μM), 72 h exposure, sulforhodamine B assay): 1.6 ± 0.4 µM |
| C=CCc1cccc(/C=N/NC(=O)CN2CCN(Cc3ccc(S(N)(=O)=O)cc3)CC2)c1O [S-PAC-1, (E)-4-((4-(2-(2-(3-allyl-2-hydroxybenzylidene)hydrazinyl)-2-oxoethyl)piperazin-1-yl)methyl)benzenesulfonamide] |  |  |  | Solubility in β-Cyclodextran (mg β-CD/μmol Compound) [3]: 3.5 mg β-CD/μmol Compound; time to steady state from beginning of infusion [6]: ≤ 6 h; enzymatic activity of uncleavable procaspase-3 (D3A) [7]: rapidly (within 5 minutes) enhances the enzymatic activity of the proenzyme; concentration at 24 h [8]: ~15 µM; S-PAC-1 in the blood at 4 hours post injection [9]: no S-PAC-1 remaining in the blood |
| C=CCc1cccc(/C=N/NC(=O)CN2CCN(Cc3cccc([N+](=O)[O-])c3)CC2)c1O [PAC-1-II-7] | 4.6 ± 1 µM |  |  | Solubility in β-Cyclodextran (mg β-CD/μmol Compound) [3]: 4.0 mg β-CD/μmol Compound |
| C=CCc1cccc(/C=N/NC(=O)CN2CCN(Cc3ccccn3)CC2)c1O [PAC-1-II-1] | 9.5 ± 1.8 µM | 48 ± 3% | 76 nM |  |
| COc1cccc(/C=N/NC(=O)CN2CCN(Cc3ccccc3CS(=O)(=O)c3ccccc3)CC2)c1O [PAC-1-III-5] | 8.4 ± 1.6 µM |  |  |  |
| C=CCc1cccc(/C=N/NC(=O)CN2CCN(Cc3cccc(Cn4cc(CNC(=O)Cc5c(C)c6cc(S(=O)(=O)O)c(N)cc6oc5=O)nn4)c3)CC2)c1O [AF-PAC-1] | 14.8 µM | 6.3% | 61 nM | activation at 50 µM ([4]; 50 μM compound): 20%; colocalization with sites of caspase-3/-7 enzymatic activity [10]: good colocalization |
| C=CCc1cccc(/C=N/NC(=O)CN2CCN(Cc3cc(OC)ccc3OC)CC2)c1O [PAC-1-II-5] | 1 ± 0.1 µM | 31 ± 3.6% | 36 nM | Solubility in β-Cyclodextran (mg β-CD/μmol Compound) [3]: 15.2 mg β-CD/μmol Compound |
| O=C(CN1CCN(Cc2ccccc2)CC1)NCCc1ccccc1O [PAC-1-IV-6] | > 100 µM | 4.1 ± 1% |  |  |
| C=CCc1cccc(/C=N/NC(=O)CN2CCC(Cc3ccccc3)CC2)c1O [PAC-1-IV-3] | 2.7 ± 1.1 µM | 36 ± 3% | 50 nM |  |
| COc1cc(O)c(/C=N/NC(=O)CN2CCN(Cc3cc(OC)c(OC)c(OC)c3)CC2)c(OC)c1 [PAC-1-III-3] | 38 ± 6.2 µM |  |  |  |
| COc1ccc(OC)c(CN2CCN(CC(=O)N/N=C/c3ccccc3O)CC2)c1 [PAC-1-III-1] |  |  |  | IC50 [2, 12]: 12 ± 2 µM |
